Experimental data from patent US20160176924A1, “MODIFIED PEPTIDES AS POTENT INHIBITORS OF THE PSD-95/NMDA RECEPTOR INTERACTION” (priority 2008, published 2016).
Several values for one entry are separate records, joined by “and”; a condition that tells them apart may be missing. Equal entries are not always repeated. Ends that are not written are not given here.

Key:
[1] = test system: cultured cortical neurons; test: Neuronal NMDA excitotoxicity assay (LDH release); format: cell-based, rat; details: 500 nM
Excerpt: When cultured cortical neurons are exposed to high concentrations of NMDA, an excitoxic cascade is initiated, which leads to cellular damage and ultimately neuronal cell death. Consequently, the cell membranes are destroyed, and cytoplasmic enzymes are released into the cell surroundings. The extent of this neuronal cell death can be quantified by measuring the release of cytoplasmic lactate dehydrogenase (LDH) enzyme into the cell medium. The compounds of interest and control compound (3) are investigated with respect to their abilities to attenuate NMDA-mediated toxicity. Compounds that are active in this assay are both membrane permeable, and can prevent ex vivo excitotoxicity, which are important properties for therapeutics towards excitotoxicity mediated diseases.
Cortical neurons were surgically removed from rats (e.g. E21) and then cultured for 7-9 days in vitro in Neurobasal A medium with B-27 supplement (each supplied by Invitrogen), further supplemented with 1 mM glutamine, 50 units/ml penicillin, and 50 μg/ml streptomycin. The following steps were then performed:
1. Samples of the cultured cortical neurons were removed from the Neurobasal-A based culture medium, at various time points prior to exposure to compound, and placed into “transfection medium” ([…]; as defined by Bading et al (1993) Science 260, 181-186) comprising: 10% modified Minimum Essential Medium (supplied by Invitrogen; product no: 21090022; containing Earles salt, but no L-glutamine), 90% Salt-Glucose-Glycine (SGG) medium: (114 mM NaCl, 0.219% NaHCO3, 5.292 mM KCL, 1 mM MgCl2, 2 mM CaCl2, 10 mM HEPES, 1 mM Glycine, 30 mM glucose, 0.5 mM sodium pyruvate, 0.1% Phenol Red), insulin-transferrin-selenite supplement (supplied by Sigma: 7.5 μg insulin/ml, 7.5 μg transferring/ml and 7.5 ng sodium selenite/ml); with a final osmolarity of 325 mosm/l. All subsequent steps were performed in this TM medium. 2. Samples of neurons are exposed to an NMDAR/PSD-95 inhibitor of the invention (compounds 40, 52-90) at a final concentration of between 0.05-50 μM for a period of between 0.5 to 1.5 hours. […] 3. Each sample of neurons was washed at least one time in TM medium to remove the NMDAR/PSD-95 inhibitor, and placed in TM medium. 4. After various periods of time, the samples of neurons were exposed to NMDA at a concentration of between 10-100 μM for a period of 0.5 to 1.5 hours, preferably 1 hour, after which the samples were again placed in TM medium for 24 hours. 5. LDH in the cell medium was quantified using commercial available kits (e.g. Promega Biotech AB, cat no G1780).

[2] = target: T1, PDZ1 of PSD-95 (Homo sapiens, UniProt P78352); test: FP heterologous competition binding assay; details: for Ki: FP competition, mean ± SEM, NA = no activity/affinity
T1 construct: PSD-95 PDZ1 (residues 61-151); made in house; host or cells: E. coli BL21-DE3 pLysS
Excerpt: (§1) Determined IC50 values may be converted to Ki values.^5 Suitable fluorophores include either 5-FAM or Cy5, which may be coupled to a tripeptide (KSG or CSG) linker attached to the N-terminus of the undecapeptide, to give 5-FAM-NR2B, Cy5-NR2B, 5-FAM-CRIPT and Cy5-CRIPT. The 5-FAM fluorophore may be attached to the undecapeptides by coupling with HATU. The Cy5 fluorophore may be conjugated to the undecapeptides by coupling Cy5-maleimide to the cysteine side chain of the tripeptide sequence CSG attached to the N-terminus of the peptide, as detailed in the Methodology section.
(§2) To measure the affinities between non-fluorescent peptides and PDZ domains, heterologous competition bindings assay were performed. This was done by adding increasing concentrations of peptide to a fixed concentration of Cy5-NR2B, 5-FAM-NR2B, Cy5-CRIPT or 5-FAM-CRIPT (50 nM) and PDZ (20 μM for PDZ1, 3 μM for PDZ2 and 1-2 and 5 μM for PDZ3) in the same TBS buffer and conditions as described above. FP values were then fitted to the general equation: Y=Bottom+(Top−Bottom)/[1[…](10̂^X-logIC50)], where X is the logarithmic value of peptide concentration. Hereby the IC50 value was obtained, which is used to calculate the theoretical competitive inhibition constant, Ki.^5
(§3) A convenient and reliable way to examine interactions between peptide analogues and PDZ domains is by using a fluorescence polarization (FP) assay. The three PDZ domains, PDZ1-3, of PSD-95 were expressed individually as set out above, while PDZ1-2 was also expressed as a tandem construct. […] IC50 values were then converted to Ki values.^5

[3] = target: T2, PDZ2 of PSD-95 (Homo sapiens, UniProt P78352); test: FP heterologous competition binding assay; details: for Ki: FP competition, mean ± SEM, NA = no activity/affinity
T2 construct: PDZ2 (residues 155-249); made in house; host or cells: E. coli BL21-DE3 pLysS
Excerpt: as §1, §2, §3

[4] = target: T3, PDZ3 of PSD-95 (Homo sapiens, UniProt P78352); test: FP heterologous competition binding assay; details: for Ki: FP competition, mean ± SEM, NA = no activity/affinity
T3 construct: PDZ3 (residues 309-401); made in house; host or cells: E. coli BL21-DE3 pLysS
Excerpt: as §1, §2, §3

[5] = target: T4, PDZ1-2 tandem of PSD-95 (Homo sapiens, UniProt P78352); test: FP heterologous competition binding assay; details: mean ± SEM
T4 construct: PDZ1-2 (residues 61-249) tandem; made in house; host or cells: E. coli BL21-DE3 pLysS
Excerpt: as §1, §2, §3

[6] = Human blood plasma stability assay; format: in vitro ADME; details: for half-life at […]: human, plasma, Blood plasma half life (T1/2)
Procedure: In this assay, the half-life (T1/2) of a compound in blood plasma is measured in vitro, whereby its susceptibility to degradation by proteases, peptidases and general plasma contents is quantified.
Compounds of interest were dissolved in human blood plasma (270 μl; 3H Biomedical, Sweden, cat no 1300-1-P50) to a concentration of 0.25 mM (30 μL of 2.5 mM) and incubated at 37° C. Aliquots (30 μl) were removed at various time intervals (0, 5, 10, 20, 40, 80, 160, 320, 960, 1280, 2550, 4560 and 7240 min) and quenched with 60 μL trichloroacetic acid (aq., 5%). The aliquots were vortexed, and incubated for at least 15 min, at 4° C. prior to centrifugation at 18,000 g for 2 min and the supernatant was analyzed by RP-HPLC to quantify the remaining compound (absorbance at 218 nm).

[7] = target: T5, PDZ1-2 of PSD-95 (Homo sapiens, UniProt P78352); test: Isothermal titration calorimetry (ITC); format: binding; details: for Kd: 25° C., PBS pH 7.4, mean ± SEM, read-out: ITC Kd PDZ12
T5 construct: PDZ1-2 (residues 61-249) tandem; made in house; host or cells: E. coli BL21-DE3 pLysS
Excerpt: This technique (Pierce, M. et al., 1999., Methods, p. 213-221) provides an exact determination of the affinity of a ligand for its target protein, as well as measuring the thermodynamic properties of the interaction, including enthalpy (ΔH), entropy (ΔS) and free energy (ΔG) together with the stoichiometric relationship of ligand binding. In this method, un-labeled ligand is titrated into a solution of un-labeled PDZ protein located in the calorimeter. Heat generated upon protein recognition is measured (ΔH) during the titration of the ligand and the PDZ protein until saturation is achieved, and the heat-exchange upon further ligand addition is negligible. Based on the amount of ligand needed to achieve saturation an affinity constant (Kd) is calculated and in addition ΔH, ΔS, ΔG and stoichiometry are determined.
Calorimetry experiments were performed on a microcalorimeter (Microcal, MA, USA). The ligands were titrated directly into the PDZ solution. All ligands and PDZ proteins were solubilized in PBS buffer (137 mM NaCl, 2.7 mM KCl, 10 mM Na2HPO4, 2 mM KH2PO4, pH 7.4) and when necessary pH was adjusted to 7.4 within 0.02 pH units after solubilization. The concentration of peptide and PDZ in solution was quantified by amino acid analysis. The calorimetry experiments were conducted at 25° C., where the PDZ1-2 concentration was generally adjusted to about 20 μM (200 μL in calorimeter) and the ligand concentration to between 200-2500 μM (injected to the protein as 20×2 μL). Experiments were designed so that c-value (c-value=Ka*[Protein]*n; where Ka is the affinity association constant, [Protein] means protein concentration, and n is the stoichiometry of the reaction) was within 1-1000. The analysed solution was stirred at 1000 rpm, with a reference power of 6 μcal/s. Heats of dilution were initially determined by titrating the ligand into buffer and subtracting these baseline values from the observed “heat values”. The data from each titration experiment were collected by ORIGIN 7.0 (Microcal, MA, USA), which was also used to determine the thermodynamic properties of ligand binding using non-linear least-squares fitting assuming a single-site model.

CC(C)[C@H](NC(=O)[C@H](C)NC(=O)[C@@H](NC(=O)[C@H](C)NCCC1CCCCC1)[C@@H](C)O)C(=O)O [ATAV (73)]
effect on NMDA-mediated excitotoxicity, in words [1]: inhibit neuronal excitotoxicity, as efficiently as the clinical candidate Tat-N2B (3) | Ki [2]: 8.9 ± 1 µM

CC(C)[C@H](NC(=O)[C@H](C)NC(=O)[C@@H](NC(=O)[C@H](CCC(=O)O)NCCC1CCCCC1)C(C)O)C(=O)O (stereo partly shown) [Compound 56, N-Cyclohexylethyl-ETAV]
effect on NMDA-mediated excitotoxicity, in words [1]: inhibit neuronal excitotoxicity, as efficiently as the clinical candidate Tat-N2B (3) | fold increase in affinity (more potent) compared to NR2B peptide (1), PDZ1 [2]: ca. 19 fold | selectivity towards PDZ1 relatively to PDZ3 [2]: 10 fold | Ki [2]: 1 µM and 0.94 µM | fold increase in affinity compared to NR2B peptide (1), PDZ2 [3]: 9 fold | selectivity towards PDZ2 relatively to PDZ3 [3]: 20 fold | Ki [3]: 0.45 ± 0.13 µM | Ki [4]: 11 ± 0.43 µM

CC(C)[C@H](NC(=O)[C@H](C)NC(=O)[C@@H](NC(=O)[C@@H](N)CCC(=O)O)[C@@H](C)O)C(=O)O [ETAV (51), ETAV]
Ki [2]: 29 ± 1.6 µM | Ki [3]: 22 ± 0.92 µM | Ki [4]: 260 ± 20 µM

KSGYEKLSSIESDV-OH [NR2B (1), reference compound]
Ki [2]: 18 ± 0.92 µM | Ki [3]: 4.1 ± 0.17 µM | Ki [5]: 7 ± 0.19 µM | affinity to PDZ3, in words ([4]; FP assay): no binding

CC[C@H](C)[C@H](NC(=O)CCOCCOCCOCCOCCOCCC(=O)N[C@H](C(=O)N[C@@H](CCC(=O)O)C(=O)N[C@@H](CO)C(=O)N[C@@H](CC(=O)O)C(=O)N[C@H](C(=O)O)C(C)C)[C@@H](C)CC)C(=O)N[C@@H](CCC(=O)O)C(=O)N[C@@H](CO)C(=O)N[C@@H](CC(=O)O)C(=O)N[C@H](C(=O)O)C(C)C [(IESDV)2PEG4 (78), (IESDV)2PEG4]
degradation in human blood plasma, in words [6]: no significant degradation could be detected over a time period of 6 days | half-life at […] [6]: > 8000 min | Kd [7]: 32 ± 10 nM | Ki [5]: ~0.1 µM

CC[C@H](C)[C@H](NC(=O)CCOCCOCCOCCOCCOCCC(=O)N[C@H](C(=O)N[C@@H](CCC(=O)O)C(=O)N[C@H](C(=O)N[C@@H](C)C(=O)N[C@H](C(=O)O)C(C)C)[C@@H](C)O)[C@@H](C)CC)C(=O)N[C@@H](CCC(=O)O)C(=O)N[C@H](C(=O)N[C@@H](C)C(=O)N[C@H](C(=O)O)C(C)C)[C@@H](C)O [(IETAV)2PEG4 (83), (IETAV)2PEG4]
half-life at […] [6]: 409 min | fold greater affinity towards PDZ1-2 compared to Tat-NR2B (3) (WT or Tat-NR2B) [7]: about 1000 fold | Kd [7]: 11 ± 10 nM | fold increase in ligand affinity by dimerization compared to monomeric IETAV (82) ([7]; PDZ1-2): 176 fold | Ki [3]: 1.1 ± 0.07 µM | Ki [5]: ~0.1 µM

CC(C)C[C@H](NC(=O)CNC(=O)[C@H](CO)NC(=O)[C@@H](N)CCCCN)C(=O)N[C@@H](CC(=O)O)C(=O)N[C@H](C(=O)N[C@@H](CCCCN)C(=O)N[C@@H](CC(N)=O)C(=O)N[C@@H](Cc1ccc(O)cc1)C(=O)N[C@@H](CCCCN)C(=O)N[C@@H](CCC(N)=O)C(=O)N[C@H](C(=O)N[C@@H](CO)C(=O)N[C@H](C(=O)O)C(C)C)[C@@H](C)O)[C@@H](C)O [CRIPT (2), reference compound]
Ki [2]: 97 ± 18 µM | Ki [3]: 25 ± 1.6 µM | Ki [5]: 45 ± 4.1 µM | Ki [4]: 2.1 ± 0.15 µM

CC(C)[C@H](NC(=O)[C@H](C)NC(=O)[C@@H](NC(=O)[C@H](CCC(=O)O)NCCc1ccc2ccccc2c1)C(C)O)C(=O)O (stereo partly shown) [Compound 63, N-(Naphtalene-2-yl)ethyl-ETAV]
effect on NMDA-mediated excitotoxicity, in words [1]: inhibit neuronal excitotoxicity, as efficiently as the clinical candidate Tat-N2B (3) | Ki [2]: 1 ± 0.33 µM | Ki [4]: 10 ± 0.22 µM
